Measured values taken from ChEMBL document CHEMBL3992488, “Anticancer agents interacting with membrane glucose transporters” (Medchemcomm, 2016).
Positions count from the first letter of the chain named.

Tests used:
[1] = target: T1, Solute carrier family 2, facilitated glucose transporter member 1 (Homo sapiens, UniProt P11166); test: Inhibition of GLUT1 in human A431 cells assessed as reduction in 2-[1,2-3H]deoxy-D-glucose uptake measured after 30 mins by liquid scintillation counting method; assay type: cell-based
T1 sequence (P11166 whole entry): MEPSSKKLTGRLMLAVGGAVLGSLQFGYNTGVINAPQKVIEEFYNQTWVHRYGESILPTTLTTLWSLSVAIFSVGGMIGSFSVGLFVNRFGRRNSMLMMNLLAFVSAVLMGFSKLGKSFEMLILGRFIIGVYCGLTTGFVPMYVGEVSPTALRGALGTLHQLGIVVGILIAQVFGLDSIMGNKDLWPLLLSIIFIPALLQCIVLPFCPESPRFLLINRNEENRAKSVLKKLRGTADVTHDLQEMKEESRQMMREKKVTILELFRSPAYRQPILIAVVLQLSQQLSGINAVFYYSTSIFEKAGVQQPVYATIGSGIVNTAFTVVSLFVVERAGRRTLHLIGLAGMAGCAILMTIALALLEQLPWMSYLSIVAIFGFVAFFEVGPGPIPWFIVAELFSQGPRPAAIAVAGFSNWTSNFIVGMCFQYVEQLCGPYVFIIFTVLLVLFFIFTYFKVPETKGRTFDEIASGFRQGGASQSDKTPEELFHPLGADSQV

[2] = target: T2, Solute carrier family 2, facilitated glucose transporter member 1 (Homo sapiens) (UniProt P11166); test: Inhibition of GLUT1 in human HT1080 cells assessed as reduction in [3H]2-deoxy-D-glucose uptake at 10 uM preincubated for 30 mins followed by [3H]2-deoxy-D-glucose addition measured after 60 mins by microbeta scintillation counting method relative to control; assay type: cell-based
T2 sequence (whole entry): T1 sequence (P11166 whole entry)

[3] = target: T1, Solute carrier family 2, facilitated glucose transporter member 1; test: Non-competitive inhibition of GLUT1-mediated facilitative uptake of [3H]-2-deoxy-D-glucose in human erythrocyte membranes; assay type: cell membranes
[4] = target: T1, Solute carrier family 2, facilitated glucose transporter member 1; test: Inhibition of GLUT1-mediated glucose uptake in human A549 cells assessed as reduction in ATP synthesis up to 30 mins in presence of mitochondrial function blocker antimycin A; assay type: cell-based
[5] = target: T1, Solute carrier family 2, facilitated glucose transporter member 1; test: Inhibition of GLUT1 (unknown origin)-mediated glucose uptake expressed in CHO-K1 cells assessed as reduction in ATP synthesis up to 30 mins in presence of mitochondrial function blocker antimycin A; assay type: cell-based
[6] = target: T1, Solute carrier family 2, facilitated glucose transporter member 1; test: Inhibition of GLUT1-mediated [14C]glucose uptake in human erythrocytes; assay type: cell-based
[7] = target: T3, Solute carrier family 2, facilitated glucose transporter member 2 (Homo sapiens, UniProt P11168); test: Inhibition of human GLUT2 expressed in Xenopus laevis oocytes assessed as reduction in [3H] 2-deoxyglucose uptake by scintillation spectrometric method; assay type: cell-based
T3 sequence (P11168 whole entry): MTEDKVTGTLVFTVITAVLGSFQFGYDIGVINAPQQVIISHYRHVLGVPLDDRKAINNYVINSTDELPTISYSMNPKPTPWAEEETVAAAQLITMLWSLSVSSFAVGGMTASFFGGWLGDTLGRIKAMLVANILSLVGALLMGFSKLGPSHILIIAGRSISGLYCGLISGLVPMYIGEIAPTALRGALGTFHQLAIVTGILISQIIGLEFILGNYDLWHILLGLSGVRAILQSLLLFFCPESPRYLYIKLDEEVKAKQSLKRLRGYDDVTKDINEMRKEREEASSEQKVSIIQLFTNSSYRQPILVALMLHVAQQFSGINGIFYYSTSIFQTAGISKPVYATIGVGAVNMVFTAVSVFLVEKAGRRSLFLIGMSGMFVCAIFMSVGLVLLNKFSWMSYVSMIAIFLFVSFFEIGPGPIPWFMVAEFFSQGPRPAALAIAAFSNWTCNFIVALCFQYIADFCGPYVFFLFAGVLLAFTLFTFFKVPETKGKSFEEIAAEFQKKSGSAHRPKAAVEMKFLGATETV

[8] = target: T3, Solute carrier family 2, facilitated glucose transporter member 2; test: Inhibition of human GLUT2 expressed in Xenopus laevis oocytes assessed as reduction in [14C]fructose uptake by scintillation spectrometric method; assay type: cell-based
[9] = target: T4, Solute carrier family 2, facilitated glucose transporter member 4 (Rattus norvegicus, UniProt P19357); test: Competitive inhibition of GLUT4 in Wistar rat adipocytes assessed as reduction in insulin-stimulated 3-O-[3H]methyl-D-glucose uptake measured for 30 secs by Lineweaver-Burk plot analysis; assay type: cell-based
T4 sequence (P19357 whole entry): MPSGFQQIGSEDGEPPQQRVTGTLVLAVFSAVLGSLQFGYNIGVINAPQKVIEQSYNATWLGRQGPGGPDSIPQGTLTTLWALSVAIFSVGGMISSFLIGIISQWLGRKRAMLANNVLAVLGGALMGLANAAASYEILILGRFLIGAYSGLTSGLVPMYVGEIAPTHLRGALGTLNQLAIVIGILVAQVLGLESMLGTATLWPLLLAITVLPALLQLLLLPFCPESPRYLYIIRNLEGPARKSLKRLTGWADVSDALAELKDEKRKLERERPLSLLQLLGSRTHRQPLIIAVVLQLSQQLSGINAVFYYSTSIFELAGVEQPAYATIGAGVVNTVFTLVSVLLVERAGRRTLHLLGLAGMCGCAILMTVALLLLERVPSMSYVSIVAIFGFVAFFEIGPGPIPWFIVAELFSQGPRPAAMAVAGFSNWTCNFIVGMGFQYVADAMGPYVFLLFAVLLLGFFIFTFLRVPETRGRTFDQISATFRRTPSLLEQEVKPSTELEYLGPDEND

[10] = Inhibition of PI3K in human U937 cells assessed as reduction in GLUT4 translocation by measuring reduction in 2-[1,2-3H(N)]deoxy-D-glucose uptake after 3 mins by scintillation spectrometric method; assay type: cell-based; conditions: U-937
[11] = organism: Mus musculus; test: Inhibition of PI3K in mouse 3T3L1 cells assessed as reduction in insulin-stimulated GLUT4 translocation by measuring reduction in [1-14C]-2-deoxy-D-glucose uptake at 6 uM pretreated for 3 days followed by insulin stimulation for 10 mins and subsequent addition of [1-14C]-2-deoxy-D-glucose measured after 10 mins relative to control; assay type: cell-based
[12] = organism: Homo sapiens; test: Inhibition of PI3K in human MCF7 cells assessed as reduction in insulin-stimulated GLUT4 translocation by measuring reduction in [1-14C]-2-deoxy-D-glucose uptake at 100 uM pretreated for 15 mins followed by insulin stimulation for 10 mins and subsequent addition of [1-14C]-2-deoxy-D-glucose measured after 10 mins relative to control; assay type: cell-based
[13] = tested on: MCF7; test: Cytotoxicity against human MCF7 cells assessed as growth inhibition at 100 uM after 24 hrs by CellTiter 96 AQueous Non-Radioactive assay relative to control; assay type: functional; conditions: MCF7, 24 h, read-out: GI
[14] = target: T1, Solute carrier family 2, facilitated glucose transporter member 1; test: Inhibition of human GLUT1 expressed in human DLD1 cells assessed as reduction in glucose uptake; assay type: cell-based
[15] = target: T5, Solute carrier family 2, facilitated glucose transporter member 4 (Homo sapiens, UniProt P14672); test: Inhibition of human GLUT4 expressed in CHO cells assessed as reduction in glucose uptake; assay type: cell-based
T5 sequence (P14672 whole entry): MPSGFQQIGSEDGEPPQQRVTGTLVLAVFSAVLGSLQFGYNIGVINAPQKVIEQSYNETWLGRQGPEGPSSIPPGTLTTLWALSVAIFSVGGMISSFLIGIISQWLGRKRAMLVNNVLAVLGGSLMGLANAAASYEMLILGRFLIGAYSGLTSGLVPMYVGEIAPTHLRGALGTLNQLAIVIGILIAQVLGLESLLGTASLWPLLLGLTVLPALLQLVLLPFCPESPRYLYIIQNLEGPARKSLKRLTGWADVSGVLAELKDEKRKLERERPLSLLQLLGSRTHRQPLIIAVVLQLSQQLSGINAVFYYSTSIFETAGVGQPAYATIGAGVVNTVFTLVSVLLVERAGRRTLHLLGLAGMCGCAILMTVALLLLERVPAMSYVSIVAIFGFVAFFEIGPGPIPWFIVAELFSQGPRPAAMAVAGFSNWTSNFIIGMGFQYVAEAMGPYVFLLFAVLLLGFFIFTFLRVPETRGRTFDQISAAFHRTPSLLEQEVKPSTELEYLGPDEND

[16] = target: T1, Solute carrier family 2, facilitated glucose transporter member 1; test: Inhibition of GLUT1 in human MCF7 cells assessed as reduction in [3H]-DG uptake pretreated for 20 mins followed by [3H]-DG addition measured after 6 mins by liquid scintillation counting method; assay type: cell-based
[17] = target: T6, Solute carrier family 2, facilitated glucose transporter member 4 (Mus musculus, UniProt P14142); test: Competitive inhibition of GLUT4 in mouse 3T3L1 cells assessed as reduction in insulin-stimulated [3H]-2-deoxy-D-glucose uptake preincubated for 20 mins followed by measured for [3H]-2-deoxy-D-glucose addition measured after 1 to 10 mins by Lineweaver-Burk plot analysis; assay type: cell-based
T6 sequence (P14142 whole entry): T4 sequence (P19357 whole entry) with E11D, Q17R, I208L, L218I, L273M, L316S, E320G, S379A, R467K, T482A

[18] = target: T1, Solute carrier family 2, facilitated glucose transporter member 1; test: Mixed type non-competitive inhibition of glucose displaceable binding of [4-3H]cytochalasin B to GLUT1 in human erythrocyte membranes after 10 mins; assay type: cell membranes
[19] = tested on: PC-3; test: Cytotoxicity against human PC3 cells after 48 hrs by SRB assay; assay type: functional, cell-based; conditions: PC-3, 48 h
[20] = tested on: RCC4; test: Growth inhibition of VHL-deficient human RCC4 cells by XTT assay; assay type: functional, cell-based
[21] = target: T6, Solute carrier family 2, facilitated glucose transporter member 4; test: Inhibition of GLUT4 in mouse 3T3L1 cells assessed as reduction in insulin-stimulated 2-deoxy-D-[14C]glucose uptake; assay type: cell-based
[22] = target: T1, Solute carrier family 2, facilitated glucose transporter member 1; test: Competitive inhibition of GLUT1 in human HL60 cells assessed as reduction in 2-[1,2-3H]deoxy-D-glucose uptake measured for 30 secs by double reciprocal plot analysis; assay type: cell-based
[23] = target: T1, Solute carrier family 2, facilitated glucose transporter member 1; test: Competitive inhibition of GLUT1 (unknown origin) expressed in CHO cells assessed as reduction in 2-[1,2-3H]deoxy-D-glucose uptake measured for 30 secs by double reciprocal plot analysis; assay type: cell-based
[24] = target: T1, Solute carrier family 2, facilitated glucose transporter member 1; test: Competitive inhibition of glucose displaceable binding of [4-3H]cytochalasin B to GLUT1 in human erythrocyte membranes after 10 mins by double reciprocal plot analysis; assay type: cell membranes
[25] = Non-competitive inhibition of glucose transporter in HTR-8/SVneo cells assessed as reduction in [3H]DG uptake preincubated for 20 mins followed by [3H]DG addition after 10 mins by liquid scintillation counting method; assay type: cell-based; conditions: Homo sapiens

Compound: C/C=C(\C)[C@H](O[C@@H]1O[C@H](CO)[C@@H](O)[C@H](O)[C@H]1O)[C@H](C)/C=C(C)/C=C/C/C(C)=C/Cc1nc(OC)c(OC)c(O)c1C
- IC50 [1]: 0.0049 µM

Compound: CC(C)NC(=O)COc1cccc(-c2nc(Nc3ccc4[nH]ncc4c3)c3ccccc3n2)c1
- inhibition [2]: > 90%

Compound: CCOC(=O)[C@@]12CCCCC/C=C\1N(Cc1cccc3ccccc13)C(=O)[C@H]2CC(=O)N1CCN(C(=O)c2ccco2)CC1
- Ki [3]: 1.2 µM
- IC50 [4]: 10 µM
- IC50 [5]: 2 µM

Compound: O=C(CCCc1ccc(N(CCCl)CCCl)cc1)OC[C@H]1OC(O)[C@H](O)[C@@H](O)[C@@H]1O (stereo not given in full)
- IC50 [6]: 65 µM

Compound: O=c1c(O)c(-c2ccc(O)c(O)c2)oc2cc(O)cc(O)c12 [QUERCETIN]
- IC50 [7]: 12 to 17 µM
- IC50 [8]: 12 to 17 µM
- Ki [9]: 16 µM

Compound: CCOC(=O)[C@@]12CN(C(=O)OC(C)(C)C)CC=C1N(CCc1ccc(OC)c(OC)c1)C(=O)[C@H]2CC(=O)NCc1cccc2ccccc12
- Ki [3]: 0.8 µM
- IC50 [4]: 3 µM
- IC50 [5]: 1 µM

Compound: O=C1C[C@@H](c2ccc(O)cc2)Oc2cc(O)cc(O)c21 [NARINGENIN]
- IC50 [10]: 50 µM
- inhibition [11]: 20%
- inhibition [12]: 50%
- inhibition of growth at 100 µM [13]: 20%

Compound: C[C@H](NC(=O)[C@H](Cc1ccc(F)cc1)NC(=O)Cc1cccc(O)c1)c1ccccc1
- IC50 [14]: 0.267 µM
- IC50 [15]: 0.195 µM

Compound: COc1ccc(CC(=O)N[C@@H](Cc2ccccc2Br)C(=O)N[C@@H](C)c2ccccc2)cc1
- IC50 [14]: 0.14 µM
- IC50 [15]: 0.09 µM

Compound: O=c1c(O)c(-c2ccc(O)cc2)oc2cc(O)cc(O)c12 [KAEMPFEROL]
- IC50 [16]: 4 µM

Compound: O=c1c(O)c(-c2cc(O)c(O)c(O)c2)oc2cc(O)cc(O)c12 [MYRICETIN]
- IC50 [7]: 12 to 17 µM
- IC50 [8]: 12 to 17 µM
- Ki [9]: 33.5 µM

Compound: COc1cc([C@H]2Oc3cc(-c4oc5cc(O)cc(O)c5c(=O)c4O)ccc3O[C@@H]2CO)ccc1O
- Ki [17]: 114 µM

Compound: Cc1cc2c(C(C)C)c(O)c(O)c(C=O)c2c(O)c1-c1c(C)cc2c(C(C)C)c(O)c(O)c(C=O)c2c1O [GOSSYPOL]
- Ki [18]: 20 µM

Compound: O=C1C[C@@H]2/C(=C(O)\C=C\c3ccccc3)C(=O)C=C[C@@H]2O1 [CRYPTOCARYONE]
- IC50 [19]: 1.6 µM

Compound: CS(=O)(=O)O[C@H]1[C@H](O)[C@@H](O)C(O)O[C@@H]1CO (stereo not given in full)
- IC50 [6]: 32000 µM

Compound: CC(C)(C)c1ccc(S(=O)(=O)NCc2ccc(C(=O)Nc3cccnc3)cc2)cc1
- IC50 [20]: 7.9 µM

Compound: O=c1c(-c2ccc(O)cc2)coc2cc(O)cc(O)c12 [GENISTEIN]
- IC50 [21]: 20 µM
- Ki [22]: 7 µM
- Ki [23]: 7 µM
- Ki [24]: 7 µM

Compound: COc1cc([C@H]2Oc3cc([C@H]4Oc5cc(O)cc(O)c5C(=O)[C@@H]4O)ccc3O[C@@H]2CO)ccc1O [SILYBIN A]
- Ki [17]: 60 µM

Compound: COc1cc(O)c(CC=C(C)C)c(O)c1C(=O)/C=C/c1ccc(O)cc1 [XANTHOHUMOL]
- IC50 [25]: 3.55 µM
